From patent US20180117043A1, “USE OF SRC PROTEIN INHIBITOR IN THE MANUFACTURE OF A MEDICAMENT FOR THE PROPHYLAXIS AND/OR TREATMENT OF ALZHEIMER'S DISEASE” (JenKem Technology Co., Ltd. (Beijing), priority 2015, published 2018)

Experiments:
[1] = tested on: transgenic fruit flies and double transgenic mice expressing Aβ42; conditions: cited from earlier work; for curative effect in screening: compounds screened in WO2012/103282; for treatment of Aβ42-induced memory loss: transgenic fruit flies and double transgenic mice expressing Aβ42, WO2012/103282
[2] = tested on: primary isolated fetal mouse cerebral cortical neuron; test: Neuroprotective activity assay against Aβ42 oligomer toxicity, cell viability detected with WST-8; conditions: 24 h
[3] = 0.001 μM/L drug + Aβ42 10 μmol/L
[4] = 0.01 μM/L drug + Aβ42 10 μmol/L
[5] = 1000 μM/L drug + Aβ42 10 μmol/L
[6] = Aβ42 oligomer 10 μmol/L, compared with model group

N#C/C(=C\c1ccc(-c2cc(C(=O)O)ccc2Cl)o1)C(=O)Nc1ccc(F)cc1 [JKF-006]
curative effect in screening [1]: preferable curative effect | treatment of Aβ42-induced memory loss [1]: effective

CCOc1cc2ncc(C#N)c(Nc3ccc(OCc4cccc(F)c4)c(Cl)c3)c2cc1NC(=O)/C=C/CN(C)C [HKI-357]
treatment of Aβ42-induced memory loss [1]: effective

Cc1c(NC(=O)OC[C@@H]2COCCN2)cn2ncnc(Nc3ccc4c(cnn4Cc4cccc(F)c4)c3)c12 [BMS-599626]
treatment of Aβ42-induced memory loss [1]: effective

COc1cc2c(Nc3ccc(Cl)c(Cl)c3F)ncnc2cc1OC[C@@H]1C[C@@H]2CN(C)C[C@@H]2C1 [XL647]
treatment of Aβ42-induced memory loss [1]: effective

CC#CC(=O)Nc1ccc2ncnc(Nc3cccc(Br)c3)c2c1 [CL-387785]
treatment of Aβ42-induced memory loss [1]: effective

C=CCNc1c(O)cc2c(O)c1C[C@@H](C)C[C@H](OC)[C@H](O)[C@@H](C)/C=C(\C)[C@H](OC(N)=O)[C@@H](OC)/C=C\C=C(/C)C(=O)N2 [IPI-504]
treatment of Aβ42-induced memory loss [1]: effective

Cc1nc(Nc2ncc(C(=O)Nc3c(C)cccc3Cl)s2)cc(N2CCN(CCO)CC2)n1 [Compound I, N-(2-chloro-6-methylphenyl)-2-{6-[4-(3-hydroxyethyl)-1-piperazinyl]-2-methyl-4-pyrimidinylamino}-5-thiazolecarboxamide]
Mean value of cell viability based on three independent replicates ([2]; 0.001 μM drug + Aβ42 10 μmol/L): 46.65% | Cell viability data in the first independent test [2, 3]: 26.98% | Cell viability data in the second independent test [2, 3]: 54.70% | Cell viability data in the third independent test [2, 3]: 58.28% | Mean value of cell viability based on three independent replicates ([2]; 0.01 μM drug + Aβ42 10 μmol/L): 67.99% | Cell viability data in the first independent test [2, 4]: 69.31% | Cell viability data in the second independent test [2, 4]: 67.22% | Cell viability data in the third independent test [2, 4]: 67.46% | Mean value of cell viability based on three independent replicates ([2]; 0.1 μM drug + Aβ42 10 μmol/L): 71.02% | Cell viability data in the first independent test ([2]; 0.1 μM/L drug + Aβ42 10 μmol/L): 80.78% | Cell viability data in the second independent test ([2]; 0.1 μM/L drug + Aβ42 10 μmol/L): 64.25% | Cell viability data in the third independent test ([2]; 0.1 μM/L drug + Aβ42 10 μmol/L): 68.05% | Mean value of cell viability based on three independent replicates ([2]; 1.0 μM drug + Aβ42 10 μmol/L): 72.44% | Cell viability data in the first independent test ([2]; 1 μM/L drug + Aβ42 10 μmol/L): 76.90% | Cell viability data in the second independent test ([2]; 1 μM/L drug + Aβ42 10 μmol/L): 65.73% | Cell viability data in the third independent test ([2]; 1 μM/L drug + Aβ42 10 μmol/L): 74.70% | Mean value of cell viability based on three independent replicates ([2]; 10 μM drug + Aβ42 10 μmol/L): 63.20% | Cell viability data in the first independent test ([2]; 10 μM/L drug + Aβ42 10 μmol/L): 68.61% | Cell viability data in the second independent test ([2]; 10 μM/L drug + Aβ42 10 μmol/L): 56.51% | Cell viability data in the third independent test ([2]; 10 μM/L drug + Aβ42 10 μmol/L): 64.50% | Mean value of cell viability based on three independent replicates ([2]; 100 μM drug + Aβ42 10 μmol/L): 73.40% | Cell viability data in the first independent test ([2]; 100 μM/L drug + Aβ42 10 μmol/L): 74.43% | Cell viability data in the second independent test ([2]; 100 μM/L drug + Aβ42 10 μmol/L): 86.16% | Cell viability data in the third independent test ([2]; 100 μM/L drug + Aβ42 10 μmol/L): 59.62% | Mean value of cell viability based on three independent replicates ([2]; 1000 μM drug + Aβ42 10 μmol/L): 64.34% | Cell viability data in the first independent test [2, 5]: 76.72% | Cell viability data in the second independent test [2, 5]: 63.92% | Cell viability data in the third independent test [2, 5]: 52.37% | dose span of effective concentration range relative to JKF-027 ([2]; Aβ42 oligomer 10 μmol/L): 10^4 times | effective concentration range (anti-toxic effect against Aβ42 oligomer) [2, 6]: 0.01 to 1000 µmol/L

CN(C)C/C=C/C(=O)Nc1cc2c(Nc3ccc(F)c(Cl)c3)ncnc2cc1O[C@H]1CCOC1 [BIBW 2992]
treatment of Aβ42-induced memory loss [1]: effective

COc1cc2c(Nc3ccc(Br)cc3F)ncnc2cc1OCC1CCN(C)CC1 [ZD-6474]
treatment of Aβ42-induced memory loss [1]: effective

C=CCNC1=C2C[C@@H](C)C[C@H](OC)[C@H](O)[C@@H](C)/C=C(\C)[C@H](OC(N)=O)[C@@H](OC)/C=C\C=C(/C)C(=O)NC(=CC1=O)C2=O [Compound 17-AAG]
treatment of Aβ42-induced memory loss [1]: effective

CCN1CCN(Cc2ccc(-c3cc4c(N[C@H](C)c5ccccc5)ncnc4[nH]3)cc2)CC1 [AEE 788]
treatment of Aβ42-induced memory loss [1]: effective

N#C/C(=C\c1ccc(N2CCOCC2)o1)C(=O)NCCc1c[nH]c2ccccc12 [JKF-027]
curative effect in screening [1]: preferable curative effect | treatment of Aβ42-induced memory loss [1]: effective | Mean value of cell viability based on three independent replicates ([2]; 0.01 μM drug + Aβ42 10 μmol/L): 46.83% | Cell viability data in the first independent test [2, 4]: 49.59% | Cell viability data in the second independent test [2, 4]: 45.88% | Cell viability data in the third independent test [2, 4]: 45.00% | Mean value of cell viability based on three independent replicates ([2]; 0.1 μM drug + Aβ42 10 μmol/L): 61.39% | Cell viability data in the first independent test ([2]; 0.1 μM/L drug + Aβ42 10 μmol/L): 77.44% | Cell viability data in the second independent test ([2]; 0.1 μM/L drug + Aβ42 10 μmol/L): 48.40% | Cell viability data in the third independent test ([2]; 0.1 μM/L drug + Aβ42 10 μmol/L): 58.33% | Mean value of cell viability based on three independent replicates ([2]; 1.0 μM drug + Aβ42 10 μmol/L): 65.31% | Cell viability data in the first independent test ([2]; 1 μM/L drug + Aβ42 10 μmol/L): 61.59% | Cell viability data in the second independent test ([2]; 1 μM/L drug + Aβ42 10 μmol/L): 61.01% | Cell viability data in the third independent test ([2]; 1 μM/L drug + Aβ42 10 μmol/L): 73.33% | Mean value of cell viability based on three independent replicates ([2]; 10 μM drug + Aβ42 10 μmol/L): 77.28% | Cell viability data in the first independent test ([2]; 10 μM/L drug + Aβ42 10 μmol/L): 87.60% | Cell viability data in the second independent test ([2]; 10 μM/L drug + Aβ42 10 μmol/L): 69.75% | Cell viability data in the third independent test ([2]; 10 μM/L drug + Aβ42 10 μmol/L): 74.50% | Mean value of cell viability based on three independent replicates ([2]; 100 μM drug + Aβ42 10 μmol/L): 40.52% | Cell viability data in the first independent test ([2]; 100 μM/L drug + Aβ42 10 μmol/L): 51.83% | Cell viability data in the second independent test ([2]; 100 μM/L drug + Aβ42 10 μmol/L): 46.89% | Cell viability data in the third independent test ([2]; 100 μM/L drug + Aβ42 10 μmol/L): 22.83% | Mean value of cell viability based on three independent replicates ([2]; 1000 μM drug + Aβ42 10 μmol/L): 21.89% | Cell viability data in the first independent test [2, 5]: 27.85% | Cell viability data in the second independent test [2, 5]: 18.66% | Cell viability data in the third independent test [2, 5]: 19.17% | effective concentration range (anti-toxic effect against Aβ42 oligomer) [2, 6]: 0.1 to 10 µmol/L | optimum anti-toxic concentration [2, 6]: 0.1 to 10 µmol/L

CCOc1cc2ncc(C#N)c(Nc3ccc(F)c(Cl)c3)c2cc1NC(=O)/C=C/CN(C)C [EKB-569]
treatment of Aβ42-induced memory loss [1]: effective
